Results reported in patent US20110009628A1, “Compounds and Compositions for Modulating Lipid Levels and Methods of Preparing Same” (priority 2009, published 2011).
Where a name gives a salt, the structure may show the parent alone.

Legend:
liver PCSK9 mRNA = assay: Liver PCSK9 mRNA in treated hamsters, quantitative real-time RT-PCR; type: in vivo, hamster; conditions: 100 mg/kg, 2 weeks, 10 animals per group
Experimental: To directly correlate the LDL-C and VLDL-C lowering effects of Compound 162 with its ability to upregulate hepatic LDLR expression and down-regulation of PCSK9, at the end of treatment, animals from vehicle and Compound 162 100 mg/kg treated groups were euthanized and levels of liver LDLR and PCSK9 mRNA were individually assessed by quantitative real-time RT-PCR using hamster specific probes. The results represent mean±SEM of 10 animals per group. The liver expression of LDLR mRNA was increased 1.7-fold over control by Compound 162 treatment (p<0.001). […] Thus, these in vivo data confirmed the in vitro effects of Compound 162 in upregulating LDLR mRNA while inhibiting PCSK9 mRNA expressions.

in vivo = assay: in vivo; set-up: species or system Golden Syrian hamsters; conditions: male, Golden Syrian, hamster, po
Experimental: For testing the efficacy of Compound 141 (phosphate salt of Compound 127) or its enantiomers (Compound 162/Compound 163) the following suspension formulation procedure was developed to make 100 ml of Compound 141 in suspension at 10 mg/ml concentration in 0.1 M tartaric buffer pH. 3 containing 0.5% hydroxypropylcellulose H-type (HPC-H):
Step 1: 1.50 g L-(+)-tartaric acid was dissolved in 100 mL water to prepare a tartaric acid solution. The solution was adjusted to pH 3 with 1.2 mL 5N NaOH solution to provide the tartaric acid buffer (100 mM). Step 2: 0.5 g HPC-H powder was added to 10 mL tartaric acid buffer (100 mM) at 50° C. The slurry was stirred for 30 minutes, and then diluted with 90 mL tartaric acid buffer (100 mM) at room temperature to provide 0.5% HPC-H. Agitation was continued until all particles were dissolved and the solution was completely free of gels. Step 3: 1.20 g Compound 141 (or Compound 162 or Compound 163) and 1.20 g mannitol were mixed and ground through a 120 mesh sieve, then the mixture was ground slightly again. The mixture was dispersed in 100 mL 0.5% HPC-H-L-(+)-Tartaric acid buffer (pH=3), then stirred until the drug dispersed evenly. The final pH was 2.6. All the above procedures were completed at room temperature (˜25° C.). The final concentration of Compound 141 was 10 mg/ml after correction of the salt weight.
The pharmacokinetic profile and bioavailability of Compound 141 (phosphate salt of Compound 127) in male Wistar rats following single intravenous (iv) and oral administration (p.o.) were measured according to the procedures of Example 4 and are summarized in Table 11. The pharmacokinetic profile of Compound 162 in male Golden Syrian masters following oral administration (pox) is summarized in Table 12.

Compound: COc1cc2c(cc1OC)C1Cc3ccc(OC)c(OS(=O)(=O)c4cccc(F)c4)c3CN1CC2 (single isomer, unassigned) [Compound 162, 2,3,10-Trimethoxy-5,6,7,8,13,13a-hexahydroisoquinolino[2,1-b]isoquinolin-9-yl 3-fluorobenzenesulfonate phosphate Salt (Enantiomer having positive optical rotation)]
- liver mRNA levels of PCSK9 (liver PCSK9 mRNA): 57 % of vehicle control
- AUC(0-inf) (in vivo; 15 mg/kg): 914 ng·h/mL
- AUC(0-t) (in vivo; 15 mg/kg): 889 ng·h/mL
- Cmax (in vivo; 15 mg/kg): 195 ng/mL
- MRT inf (in vivo; 15 mg/kg): 6.95 h
- MRT last (in vivo; 15 mg/kg): 6.06 h
- Tmax (in vivo; 15 mg/kg): 0.5 h
- t1/2z (in vivo; 15 mg/kg): 5.21 h
- AUC(0-inf) (in vivo; 30 mg/kg): 2110 ng·h/mL
- AUC(0-t) (in vivo; 30 mg/kg): 2020 ng·h/mL
- Cmax (in vivo; 30 mg/kg): 848 ng/mL
- MRT inf (in vivo; 30 mg/kg): 5.17 h
- MRT last (in vivo; 30 mg/kg): 3.81 h
- Tmax (in vivo; 30 mg/kg): 0.5 h
- t1/2z (in vivo; 30 mg/kg): 6.85 h
